Laboratory results from patent publication US10011571B2, “Preparation method for aromatic heterocyclic compound used as selective JAK3 and/or JAK1 kinase inhibitor and application of aromatic heterocyclic compound” (SHENZHEN CHIPSCREEN BIOSCIENCES, LTD., priority 2014, dated 2018).

Key:
[1] = tested on: IL-2/JAK1 & 3/STAT5 (hPBC); test: Intracellular activity assay, IL-2 induced STAT5 phosphorylation in hPBC; type: cell-based; conditions: Homo sapiens; inhibition of STAT5 phosphorylation, activated hPBC, IL-2 10 ng/mL
Description: (§1) In this experiment, western blot (WB) and flow cytometry are used to evaluate the intracellular activities of the test compounds by comparing the relative levels of the signals of phosphorylated and non-phosphorylated STATs in 5 cell models, including U937, THP-1, CTLL-2, UT-7/EPO and activated human periphery blood cell (hPBC). The primary antibody and secondary antibody used in WB hybridization in this experiment are purchased from Cell Signaling Company (http://www.cellsignal.com). The fluorescence-labeled antibodies used in flow cytometry are purchased from eBiosciences Company (http://www.ebioscience.com).
Cytokine IL-2 dependent proliferation is formed after activation by co-stimulation of human periphery blood cell (hPBC) with CD3 antibody. The growth signal pathway is mediated by the heterodimer of JAK1/3 and induces the phosphorylation of downstream STAT5. The intracellular inhibitory activity of the compounds on JAK1/3 can be evaluated by detecting the change of the phosphorylation level of STAT5.
(§2) (1) Treatment by the compound: the experiment is carried out in a 6-well plate. […]
(§3) (2) Cell fixation and fluorescence labeling: the cells are fixed using paraformaldehyde (30 min), and subsequently treated for membrane permeability in chilled methanol (15 min). […]
(§4) (3) Detection by flow cytometry: the detection is carried out using Guava® easyCyte flow cytometer according to the instruction. The median fluorescent intensity (MFI) of a sample is detected using an appropriate cell population. On such a basis, the relative signal intensities are calculated for the phosphorylated STATs treated by the compounds at different concentrations by reference to the signal of the negative (with no factor stimulation) and the positive control (with both factor stimulation and solvent control) in the experiment, so that the IC50 of the compound for the inhibitory activity on STATs phosphorylation can be evaluated.

[2] = tested on: EPO/JAK2/STAT5a (UT-7); test: Intracellular activity assay, EPO induced STAT5 phosphorylation in UT-7/EPO; type: cell-based; conditions: Homo sapiens, inhibition of STAT5 phosphorylation, EPO 10 ng/mL
Description: as §1
UT-7/EPO is a cell line formed from the marrow of a patient suffering from […] after cultured with EPO induction, and it has obvious response to cytokine EPO. The signal for EPO is transmitted via the homodimer of JAK2 and induces the phosphorylation of downstream STAT5, while a JAK inhibitor suppresses the phosphorylation of STAT5 by suppressing the activity of JAK2. The intracellular inhibitory activity of the compounds on JAK2 can be evaluated by detecting the change of the phosphorylation level of STAT5.
as §2, §3, §4

[3] = molecular target: JAK1 (Homo sapiens (Human), UniProt P23458); test: Eurofins IC50Profiler radiometric kinase assay, JAK1; type: biochemical; conditions: 9 semilog concentrations
Description: A proportion of the compounds of the present invention are subjected to kinase profile screening (KinaseProfiler™)) and enzymatic inhibitory activity (IC50Profiler™)) assay by entrusting Eurofins company (http://www.eurofins.com). Besides the kinases in the JAK family, the kinases that have been screened for their activity also include most Group 3F and Group 4 kinases (ITK, BLK, TBK1, VEGFRs, ERBBs, etc.), and blood system related kinases (Zhang J. et al. 2009, Nat. Rev. Cancer., 9: 28-39). The concentration of the test compound for kinase profile screening is 1 μM, and a gradient of 9 semilog concentration gradients are used to determine IC50. Detection is carried out according to standard procedure of Eurofins Company. Briefly, according to the requirements of different kinase reactions, 0.2 μL test compound (50 μM, dissolved in dimethyl sulfoxide (DMSO)) is added to reaction buffer containing specific kinase (the buffer system containing 20 mM MOPS, 1 mM EDTA, 0.01% Brij-35, 5% Glycerol, 0.1% β-mercaptoethanol, 1 mg/mL BSA, or 50 mM TRIS, 0.1 mM EGTA, 0.1 mM Na3VO4, 0.1% β-mercaptoethanol, 1 mg/mL BSA, based on the type of kinase used). Subsequently, a kinase specific substrate at a final concentration of 50 μM (specific substrate used for specific kinase), 10 mM Mg Acetate and isotope-labeled γ-^33P ATP (radio-activity of about 500 cpm/pmol) are sequentially added to a total volume of 10 μL for the reaction system. After incubation at room temperature for 40 min, the reaction is terminated by adding 3% phosphoric acid solution. The mixture is then transferred to a filter-type low temperature spray dryer (P30 filtermat), and washed by 75 mM phosphoric acid solution for 3 times and by methanol once. After drying, radio-activity is detected. For specific procedure, see the standard procedure provided by Eurofins Company: http://www.eurofins.com/media/9724077/kinaseprofiler_assay_protocol_guide_eurofins_v64.pdf).

JAK1, sequence (P23458 whole entry, species assumed): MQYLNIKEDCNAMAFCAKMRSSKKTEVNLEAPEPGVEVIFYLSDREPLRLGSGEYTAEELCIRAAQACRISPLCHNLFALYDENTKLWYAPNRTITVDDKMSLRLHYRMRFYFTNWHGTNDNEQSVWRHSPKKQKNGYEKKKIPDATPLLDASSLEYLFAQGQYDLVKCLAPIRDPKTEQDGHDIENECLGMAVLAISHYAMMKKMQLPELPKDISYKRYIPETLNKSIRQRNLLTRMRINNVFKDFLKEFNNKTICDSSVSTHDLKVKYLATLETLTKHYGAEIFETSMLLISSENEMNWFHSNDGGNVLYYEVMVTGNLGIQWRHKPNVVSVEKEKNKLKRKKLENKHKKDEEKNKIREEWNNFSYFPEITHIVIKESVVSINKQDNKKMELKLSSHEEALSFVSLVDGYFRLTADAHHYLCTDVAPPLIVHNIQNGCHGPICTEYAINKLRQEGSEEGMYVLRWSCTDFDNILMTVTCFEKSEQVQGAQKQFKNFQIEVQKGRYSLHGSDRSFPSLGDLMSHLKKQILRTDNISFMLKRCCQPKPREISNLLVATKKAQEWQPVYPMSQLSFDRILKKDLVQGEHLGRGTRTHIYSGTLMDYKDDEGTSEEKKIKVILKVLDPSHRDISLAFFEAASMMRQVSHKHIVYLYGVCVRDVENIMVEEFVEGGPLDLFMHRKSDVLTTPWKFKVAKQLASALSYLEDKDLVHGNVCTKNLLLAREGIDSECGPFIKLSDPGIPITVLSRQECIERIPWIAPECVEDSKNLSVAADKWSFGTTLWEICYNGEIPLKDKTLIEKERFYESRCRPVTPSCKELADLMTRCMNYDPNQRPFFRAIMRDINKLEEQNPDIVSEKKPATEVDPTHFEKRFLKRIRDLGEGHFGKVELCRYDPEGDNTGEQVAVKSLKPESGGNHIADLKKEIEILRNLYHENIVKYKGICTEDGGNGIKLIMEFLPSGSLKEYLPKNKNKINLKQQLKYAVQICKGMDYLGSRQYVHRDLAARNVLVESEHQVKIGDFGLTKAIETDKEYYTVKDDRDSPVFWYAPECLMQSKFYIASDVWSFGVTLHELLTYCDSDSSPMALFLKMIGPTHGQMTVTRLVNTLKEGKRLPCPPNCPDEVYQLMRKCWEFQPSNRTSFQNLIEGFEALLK

## C=CC(=O)N(C)c1cc(Nc2ncc(Cl)c(NCCCNC(=O)c3ccc(C#N)cc3)n2)ccc1F [Example 7, N-(3-(5-chloro-2-(4-fluoro-3-(N-methylacrylamido)phenylamino)pyrimidinyl-4-amino)propyl)-4-cyano-benzamide]
[1]
  IC50: 0.16 µM
[2]
  IC50: > 3 µM
[3]
  IC50: 0.105 µM

## C=CC(=O)N(C)c1cc(Nc2ncc(Cl)c(NCCCNC(=O)c3ccc(F)cc3)n2)ccc1F [Example 23, N-(3-(5-chloro-2-(4-fluoro-3-(N-methylacrylamido)phenylamino)pyrimidinyl-4-amino)propyl)-4-fluorobenzamide]
[1]
  IC50: 0.24 µM
[2]
  IC50: > 3 µM
[3]
  IC50: 0.173 µM

## C=CC(=O)N(C)c1cc(Nc2ncc(Cl)c(NCCCNC(=O)c3ccc(C(F)(F)F)cc3)n2)ccc1F [Example 22, N-(3-(5-chloro-2-(4-fluoro-3-(N-methylacrylamido)phenylamino)pyrimidinyl-4-amino)propyl)-4-trifluoromethylbenzamide]
[1]
  IC50: 0.2 µM
[2]
  IC50: > 3 µM
[3]
  IC50: 0.279 µM
